{"source": "paper PMC7395068", "about": "“The evolution of strategies to minimise the risk of human drug-induced liver injury (DILI) in drug discovery and development” (Archives of Toxicology, 2020)", "key": {"[1]": {"tested_on": "HepG2 C3A spheroid, BSEP, Glu/Gal in HepG2 cells, bioactivation", "details": "cited from earlier work"}, "[2]": {"details": "cited from earlier work"}, "[3]": {"details": "cited from earlier work", "remark": "listed apart in the source"}, "[4]": {"tested_on": "HepG2 cells", "details": "cited from earlier work"}, "[5]": {"tested_on": "HepG2 cells", "details": "cited from earlier work", "remark": "listed apart in the source"}, "[6]": {"tested_on": "PHH spheroids", "details": "In vitro Assay; ref Vorrink 2018; cited from earlier work"}, "[7]": {"tested_on": "hLiMTs", "assay": "Combined HCI (HCS) and cellular ATP 3D assay in hLiMTs", "details": "for AC50 / minimal effective concentration: Homo sapiens"}, "[8]": {"tested_on": "THLE-Null and THLE-3A4 cells", "details": "In vitro Assay; ref Gustafsson 2014; cited from earlier work"}, "[9]": {"details": "cited from earlier work", "remark": "listed apart in the source"}, "[10]": {"tested_on": "rBsep", "details": "In vitro Assay; ref Dawson 2012; cited from earlier work"}, "[11]": {"tested_on": "PHH", "details": "In vitro Assay; ref Albrecht 2019; cited from earlier work"}, "[12]": {"tested_on": "HepG2", "set-up": "method as in Albrecht 2019", "details": "In vitro Assay; ref Albrecht 2019; cited from earlier work"}, "[13]": {"tested_on": "PHH liver spheroid", "set-up": "method as in Foster et al. 2019", "details": "liver-chip of comparable sensitivity, ref Foster et al. 2019; cited from earlier work"}, "[14]": {"tested_on": "HepaRG spheroids", "assay": "Combined HCI (HCS) and cellular ATP 3D assay in HepaRG spheroids", "details": "for AC50 / minimal effective concentration: Homo sapiens"}, "[15]": {"tested_on": "HepG2 cells", "details": "cited from earlier work", "remark": "listed apart in the source"}, "[16]": {"tested_on": "HepaRG cells", "details": "HepaRG cells, BMCs in relation to 10 × human Cmax.tot; ref National Toxicology Program; cited from earlier work"}, "[17]": {"details": "plasma free fraction; cited from earlier work"}, "[18]": {"assay": "Plasma free fraction (fu) and unbound Cmax (Cmax,u)", "format": "in vitro ADME, human", "details": "unbound plasma Cmax"}, "[19]": {"tested_on": "PHH", "details": "cited from earlier work"}, "[20]": {"tested_on": "hLiMTs", "details": "cited from earlier work"}, "[21]": {"tested_on": "isolated mouse liver mitochondria", "details": "In vitro Assay; ref Porceddu 2012; cited from earlier work"}, "[22]": {"details": "Microtissue model structural based (HCI), combined HCS and ATP, MEC < 25 × Cmax.tot cut-off"}, "[23]": {"details": "In vitro Assay, ref Proctor 2017"}}, "note": "Where two headings read alike, the source gives them in different places.", "data": [{"compound": "CC(=O)Nc1ccc(O)cc1", "note": "[acetaminophen]", "values": [{"measurement": "Bayesian Machine Learning DILI prediction, Williams (2019)", "setting": "[1]; Bayesian modeling, ref Williams et al. 2019", "value": "+VE"}, {"measurement": "Bayesian Machine Learning", "setting": "[1]; In vitro Assay, ref Williams 2019", "value": "+VE"}, {"measurement": "Cmax", "setting": "[2]; read-out: Cmax.tot, value used by Albrecht, ref Albrecht et al. 2019", "value": 109, "unit": "µM"}, {"measurement": "Cmax", "setting": "[2]; read-out: Human plasma Cmax, total plasma Cmax.tot, median of 9 literature references", "value": 152, "unit": "µM"}, {"measurement": "DILI severity category (Chen et al. [2016])", "setting": "[3]; LTKB DILIrank category, ref Chen et al. 2016", "value": "Most"}, {"measurement": "DILI severity category", "setting": "[3]; human DILI severity, ref Chen et al.", "value": "Most"}, {"measurement": "DILI +VE (5-8), DILI -VE (-4)", "setting": "[3]; ref Chen 2016", "value": "+VE"}, {"measurement": "DILI severity category", "setting": "[3]; ref Chen 2016", "value": "vMost-DILI-Concern"}, {"measurement": "Structural based (HCI)", "setting": "[4]; In vitro Assay, ref Persson 2013", "value": "-VE"}, {"measurement": "DILI in vitro assay prediction, Persson (2013)", "setting": "[4]; Structural based (HCI), HepG2, ref Persson et al. 2013", "value": "-VE"}, {"measurement": "Structural based (HCI)", "setting": "[5]; In vitro Assay, ref Tolosa 2012", "value": "+VE"}, {"measurement": "DILI in vitro assay prediction, Tolosa (2012)", "setting": "[5]; Structural based (HCI), HepG2, ref Tolosa et al. 2012", "value": "+VE"}, {"measurement": "hLiMTs ATP <20 x Cmax", "setting": "[6]", "value": "+VE (IC20 < 20 × Cmax.tot cut-off)"}, {"measurement": "AC50", "setting": "[7]; read-out: ATP endpoint AC50", "value": 1240, "unit": "µM"}, {"measurement": "minimal effective concentration", "setting": "[7]; read-out: ATP endpoint MEC", "value": 292, "unit": "µM"}, {"measurement": "AC50", "setting": "[7]; read-out: HCS endpoint AC50", "value": 4340, "unit": "µM"}, {"measurement": "minimal effective concentration", "setting": "[7]; read-out: HCS endpoint MEC", "value": 456, "unit": "µM"}, {"measurement": "DILI prediction hLiMTs (HCS-MEC)", "setting": "[7]; [22]", "value": "+VE (MEC < 25 × Cmax.tot cut-off)"}, {"measurement": "hLiMTs <25x Avg Cmax ATP", "setting": "[7]; hLiMTs, ATP endpoint, cut-off <25x Avg Cmax", "value": "+ve"}, {"measurement": "hLiMTs <100x Avg Cmaxu ATP", "setting": "[7]; hLiMTs, ATP endpoint, cut-off <100x Avg Cmaxu", "value": "+ve (<100x Avg Cmaxu)"}, {"measurement": "hLiMTs <25x Avg Cmax HCS", "setting": "[7]; hLiMTs, HCS endpoints, cut-off <25x Avg Cmax", "value": "+ve"}, {"measurement": "hLiMTs <100x Avg Cmaxu HCS", "setting": "[7]; hLiMTs, HCS endpoints, cut-off <100x Avg Cmaxu", "value": "+ve (<100x Avg Cmaxu)"}, {"measurement": "hLiMTs <25x Avg Cmax All", "setting": "[7]; hLiMTs, all endpoints (ATP and HCS), cut-off <25x Avg Cmax", "value": "+ve"}, {"measurement": "hLiMTs Cmax max All", "setting": "[7]; hLiMTs, all endpoints, Cmax max used", "value": "+ve"}, {"measurement": "hLiMTs Cmax min All", "setting": "[7]; hLiMTs, all endpoints, Cmax min used", "value": "+ve"}, {"measurement": "hLiMTs <10 uM All", "setting": "[7]; hLiMTs, all endpoints, cut-off <10 uM", "value": "-ve"}, {"measurement": "hLiMTs <100x Avg Cmaxu All", "setting": "[7]; hLiMTs, all endpoints, cut-off <100x Avg Cmaxu", "value": "+ve (<100x Avg Cmaxu)"}, {"measurement": "THLE-Null", "setting": "[8]", "value": "-VE"}, {"measurement": "Assigned DILI category", "setting": "[9]; Chen et al. 2016 or literature alignment, ref Chen et al. 2016", "value": 3}, {"measurement": "In vivo DILI", "setting": "[9]; […]", "value": "+VE"}, {"measurement": "In vivo DILI", "setting": "[9]; ref Albrecht 2019", "value": "+VE"}, {"measurement": "In vivo DILI", "setting": "[9]; ref Dawson 2012", "value": "+VE"}, {"measurement": "In vivo DILI", "setting": "[9]; ref Garside 2014", "value": "+VE"}, {"measurement": "In vivo DILI", "setting": "[9]; ref Gustafsson 2014", "value": "+VE"}, {"measurement": "In vivo DILI", "setting": "[9]; ref O'Brien 2006", "value": "+VE"}, {"measurement": "In vivo DILI", "setting": "[9]; ref Persson 2013", "value": "+VE"}, {"measurement": "In vivo DILI", "setting": "[9]; ref Porceddu 2012", "value": "+VE"}, {"measurement": "In vivo DILI", "setting": "[9]; ref Proctor 2017", "value": "+VE"}, {"measurement": "In vivo DILI", "setting": "[9]; ref Schadt 2015", "value": "+VE"}, {"measurement": "In vivo DILI", "setting": "[9]; ref Tolosa 2012", "value": "+VE"}, {"measurement": "In vivo DILI", "setting": "[9]; ref Vorrink 2018", "value": "+VE"}, {"measurement": "In vivo DILI", "setting": "[9]; ref Williams 2019", "value": "+VE"}, {"measurement": "In vivo DILI", "setting": "[9]; ref Xu 2008", "value": "+VE"}, {"measurement": "Inhibition of rBsep cutoff<1& cmax u>.2", "setting": "[10]", "value": "-VE"}, {"measurement": "Inhibition of rBsep cutoff<3", "setting": "[10]", "value": "-VE"}, {"measurement": "Cytotoxicity PHH 48 hrs", "setting": "[11]", "value": "+VE"}, {"measurement": "Cytotoxicity HepG2 48 hrs", "setting": "[12]", "value": "+VE"}, {"measurement": "detection in 3D microtissues", "setting": "[13]", "value": "detected"}, {"measurement": "HepaRG <25x Avg Cmax ATP", "setting": "[14]; HepaRG, ATP endpoint, cut-off <25x Avg Cmax", "value": "+ve"}, {"measurement": "HepaRG <100x Avg Cmaxu ATP", "setting": "[14]; HepaRG, ATP endpoint, cut-off <100x Avg Cmaxu", "value": "+ve (<100x Avg Cmaxu)"}, {"measurement": "HepaRG <25x Avg Cmax HCS", "setting": "[14]; HepaRG, HCS endpoints, cut-off <25x Avg Cmax", "value": "+ve"}, {"measurement": "HepaRG <100x Avg Cmaxu HCS", "setting": "[14]; HepaRG, HCS endpoints, cut-off <100x Avg Cmaxu", "value": "+ve (<100x Avg Cmaxu)"}, {"measurement": "HepaRG <25x Avg Cmax All", "setting": "[14]; HepaRG, all endpoints (ATP and HCS), cut-off <25x Avg Cmax", "value": "+ve"}, {"measurement": "HepaRG Cmax max All", "setting": "[14]; HepaRG, all endpoints, Cmax max used", "value": "+ve"}, {"measurement": "HepaRG Cmax min All", "setting": "[14]; HepaRG, all endpoints, Cmax min used", "value": "+ve"}, {"measurement": "HepaRG <10 uM All", "setting": "[14]; HepaRG, all endpoints, cut-off <10 uM", "value": "-ve"}, {"measurement": "HepaRG <100x Avg Cmaxu All", "setting": "[14]; HepaRG, all endpoints, cut-off <100x Avg Cmaxu", "value": "+ve (<100x Avg Cmaxu)"}, {"measurement": "AC50", "setting": "[14]; HepaRG, read-out: ATP endpoint AC50", "value": 760, "unit": "µM"}, {"measurement": "minimal effective concentration", "setting": "[14]; HepaRG, read-out: ATP endpoint MEC", "value": 187, "unit": "µM"}, {"measurement": "AC50", "setting": "[14]; HepaRG, read-out: HCS endpoint AC50", "value": 3100, "unit": "µM"}, {"measurement": "minimal effective concentration", "setting": "[14]; HepaRG, read-out: HCS endpoint MEC", "value": 656, "unit": "µM"}, {"measurement": "DILI prediction HepaRG spheroids (HCS-MEC)", "setting": "[14]; [22]", "value": "+VE (MEC < 25 × Cmax.tot cut-off)"}, {"measurement": "Structural based (HCI)", "setting": "[15]; In vitro Assay, ref O'Brien 2006", "value": "+VE"}, {"measurement": "DILI in vitro assay prediction, O'Brien (2006)", "setting": "[15]; Structural based (HCI), HepG2, ref O'Brien et al. 2006", "value": "+VE (lowest HCI endpoint IC50 (or in the absence of dose–response < 100 µM) < 30 × total human plasma exposure levels (Cmax.tot))"}, {"measurement": "DILI identification by high-throughput transcriptomics", "setting": "[16]", "value": "identified"}, {"measurement": "fu", "setting": "[17]", "value": 0.920}, {"measurement": "Human plasma Cmax,u", "setting": "[18]", "value": 139.840, "unit": "µM"}, {"measurement": "PHH/100uM, Proctor (2017)", "setting": "[19]; 2D PHH, ATP, IC50 threshold 100 µM, ref Proctor et al. 2017", "value": "-VE"}, {"measurement": "PHH ATP <100uM", "setting": "[19]; [23]", "value": "+VE (IC50 threshold of 100 µM)"}, {"measurement": "hLiMTs ATP <100uM", "setting": "[20]; [23]", "value": "-VE"}, {"measurement": "hLiMTs/100uM, Proctor (2017)", "setting": "[20]; hLiMTs, ATP, IC50 threshold 100 µM, ref Proctor et al. 2017", "value": "-VE"}, {"measurement": "in vitro data EC2<=1x Cmax", "setting": "[21]", "value": "+VE"}, {"measurement": "in vitro data EC20<=2uM", "setting": "[21]", "value": "-VE"}]}]}
